According to US20190086391A1, “METHOD AND SYSTEM FOR CONTINUOUS BIOSENSING” (Yissum Research Development Company of the Hebrew …, priority 2016, published 2019):
“And” between values parts separate entries of the source, which are not always exact repeats. Equal values may be shown once.

Key:
Assay type in all cases: cell-based, human
HepG2/C3A cells [1] = assay: Flux balance analysis of metabolic pathways and ATP production; conditions: 50 μM; for ATP production, % of untreated cells: calculated from flux balance; for Glutaminolysis (calculated metabolic flux) / Glycolysis (calculated metabolic flux) / Lipogenesis (calculated metabolic flux) / Respiration (calculated metabolic flux): troglitazone 6 hours, rotenone 3 hours
Description: (§1) Glucose uptake, oxygen uptake and lactate production rates were measured by calculating the change in metabolite concentration between the bioreactor in- and outflow, as function of perfusion rate and cell number as described above. Metabolic rates were calculated assuming negligible contribution to oxygen uptake by fatty acid oxidation and enzymatic activity. Low level of lipids in the culture medium ensured that fatty acid uptake was 50-fold lower than glucose while glutamine contribution to the Krebs cycle was minor (results).
Based on these assumptions, oxidative phosphorylation flux was calculated by dividing oxygen uptake rate by six. 32 ATP molecules generated by complete oxidation of 1 molecule of glucose were estimated. Glycolysis flux was calculated by dividing lactate production rate by two, with maximal rate defined by glucose uptake rate minus the oxidative phosphorylation flux. ATP production in glycolysis was estimated to be 2 molecules per molecule of glucose. It was assumed that any glucose left over was directed toward lipogenesis, as the contribution of pentose phosphate pathway in nonproliferating cells is minor (31). Finally, it was assumed that excess lactate was produced by glutaminolysis, and confirmed the assumption using offline measurement of glutamine uptake (FIGS. 10A and 10B). ATP production in glutaminolysis was estimated to be 3 molecules per molecule of lactate generated.

HepG2/C3A cells [2] = assay: Seahorse Mitochondrial Stress Test (OCR, ECAR), static culture; conditions: 50 μM; for decrease in maximal mitochondrial capacity: after uncoupler injection
Description: HepG2/C3A cells were plated in gelatin-coated SeaHorse XFp cell culture miniplates (Seahorse Bioscience, USA) and cultured for 24 hours. Subsequently, cultures were treated with medium containing 50 μM troglitazone for 6 hours, 50 μM rotenone for 3 hours, or vehicle control prior to initiation of assay. Mitochondrial Stress Test assay was conducted per manufacturer instructions (29). Briefly, cells were incubated in unbuffered XF Base Medium supplemented with 2 mM glutamine, 1 mM sodium pyruvate, and 10 mM glucose (pH 7.4) for 1 hour at 37° C. in a non-CO2 incubator. Basal oxygen consumption rate (OCR) was measured for 30 min, followed by injection of 1 μM oligomycin, a mitochondrial […] inhibitor that completely blocks oxidative phosphorylation. The decrease in OCR due to oligomycin treatment is defined as oxidative phosphorylation rate. 1 μM carbonyl cyanide-4 (trifluoromethoxy) phenylhydrazone (FCCP), an uncoupling agent, is added at 60 min to measure maximal mitochondrial activity followed by complete inhibition at 90 min using a mixture of 0.5 μM antimycin A and rotenone, mitochondrial Complex III and Complex I inhibitors. Basal extracellular acidification rates (ECAR) was measured for 30 min, in the presence of 10 mM glucose, followed by injection of 1 μM oligomycin. The increase in ECAR due to oligomycin treatment was defined as glycolytic capacity. Data are presented normalized to […] cells as determined by Hoechst DNA content assay.

HepG2/C3A cells [3] = assay: Real-time amperometric glucose and lactate measurements in bioreactor outflow; conditions: for total glucose uptake rate: 50 μM treated cells
Description: Amperometric glucose and lactate sensors were purchased from BioSensor Technology (Berlin, Germany) and embedded in a CNC-fabricated PMMA flow-chamber with an inner volume of 26 μl. The sensors are based on the enzymatic reactions of glucose oxidase, with a linear range of 0.5 mM to 30 mM, and lactate oxidase, with a linear range of 0.5 mM to 20 mM. Both sensors produce H2O2 in amounts proportional to the measured metabolite, which is detected with platinum electrodes under polarized condition. The microfluidic controller (13) was programmed to open a microfluidic valve every hour, allowing a 40 μl medium sample to flow through the switchboard and into the sensors unit. Amperometric measurement lasted 200 seconds and was followed by automated perfusion of PBS washing solution, CAL 4+M calibration buffer (Eschweiler, Germany), and 4 seconds of air bubble acting as a diffusion barrier between samples. Reading was carried out on EmStat3 OEM embedded potentiostat (PalmSens, Netherlands) connected to the central computer.
as §1

HepG2/C3A cells [4] = assay: Seahorse glutamine oxidation assay; conditions: 50 μM, static culture
Description: HepG2/C3A cells were plated in gelatin-coated XFp cell culture miniplates and cultured for 24 hours. Subsequently, cultures were treated with medium containing 50 μM troglitazone for 6 hours, 50 μM rotenone for 3 hours, or vehicle control prior to initiation of assay. Glutamine oxidation assay was conducted per manufacturer instructions. Briefly, cells were incubated in unbuffered XF Base Medium supplemented with 2 mM Glutamine, 1 mM sodium pyruvate, and 10 mM glucose (pH 7.4) for 1 hour at 37° C. in a non-CO2 incubator. Glutamine oxidation was profiled by successive injections of 3 μM BPTES, an allosteric inhibitor of glutaminase (GLS1), and a mixture of 4 μM etomoxir, a carnitine palmitoyl-transferase 1A (CPT1A) inhibitor and 2 μM UK5099 a mitochondrial pyruvate carrier inhibitor, blocking fatty acid oxidation and […], respectively. The decrease in baseline OCR due to BPTES treatment was defined as the rate of glutaminolysis. Data are presented normalized to 10^6 cells as determined by Hoechst DNA content assay.

HepG2/C3A cells [5] = assay: JC-1 mitochondrial membrane potential staining; conditions: 50 μM
Description: JC-1 cell permeable dye was purchased from Life Technologies (New York, N.Y.). HepG2/C3A cells were incubated with 50 μM of troglitazone or rotenone for varying durations. To evaluate mitochondrial membrane potential at each time point, cells were incubated with 5 μM JC-1 dye for 30 min, washed with PBS and imaged by confocal microscopy on a LSM700 (Zeiss, Germany). […] Consequently, mitochondrial depolarization is quantified by dividing red over green fluorescence intensity.

HepG2/C3A spheroids = assay: Offline glutamine uptake in bioreactor perfusate; conditions: 50 μM
Description: Glutamine concentration was determined using glutamine and glutamate determination kit (Sigma-Aldrich). Bioreactors containing HepG2/C3A spheroids were set up as described in the main text and perfused at 2 μl/min. Perfusate samples were collected for 60 minutes for a total of 120 μl per sample. Glutamine was quantified according to manufacturer directions.

[6] = surrogate of lactate production
[7] = 50 μM, after 6 hours of exposure
[8] = 50 μM, within the first 2 hours

SMILES | ATP production, % of untreated cells (HepG2/C3A cells [1]) | Glutaminolysis (calculated metabolic flux) (HepG2/C3A cells [1]) [nmol/min/10^6 cells] | Glycolysis (calculated metabolic flux) (HepG2/C3A cells [1]) [nmol/min/10^6 cells] | Lipogenesis (calculated metabolic flux) (HepG2/C3A cells [1]) [nmol/min/10^6 cells] | Respiration (calculated metabolic flux) (HepG2/C3A cells [1]) [nmol/min/10^6 cells] | decrease in (mitochondrial) basal metabolic rate (HepG2/C3A cells [2]; static culture) | decrease in maximal mitochondrial capacity (HepG2/C3A cells [2]; static culture) [%] | total glucose uptake rate (HepG2/C3A cells [3]) [nmol/min/10^6] | lactate over glucose ratio (HepG2/C3A cells [3]; 50 μM, 6 hours after exposure) | increase in glutamine oxidation rate (glutaminolysis) (HepG2/C3A cells [4]) [%] | increase in glutamine consumption (offline measurement) (HepG2/C3A spheroids) [folds] | other results
Cc1c(C)c2c(c(C)c1O)CCC(C)(COc1ccc(CC3SC(=O)NC3=O)cc1)O2 (stereo not shown) [troglitazone] | 97% | 0.02 | 2.25 | 0 | 0.25 | 20±6% | 22±9 | 2.5 | 1.8 | 26±30 | 5±2 | decrease in oxidative phosphorylation flux (HepG2/C3A cells [1]; after 6 hours of exposure): 23%; increase in glycolysis (flux) (HepG2/C3A cells [1]; after 6 hours of exposure): 51%; increase in extracellular acidification rate (ECAR) (HepG2/C3A cells [2]; [6]): 43±43%; increase in lactate production (HepG2/C3A cells [3]; 50 μM, within 4 to 5 hours): 51%; increase in mitochondrial membrane potential (MMP) (HepG2/C3A cells [5]; over 6 hours of exposure): 33±7%
C=C(C)[C@H]1Cc2c(ccc3c2O[C@@H]2COc4cc(OC)c(OC)cc4[C@@H]2C3=O)O1 [rotenone] | less than 36% | 0.56 | 0.97 | 0 | 0.03 | 83% and 83±5% | 87 | 1.0 | 6.1 | 382±115 | 30±4 | decrease in oxidative phosphorylation flux (HepG2/C3A cells [1]; after 3 hours of exposure): 90%; increase in glycolysis (flux) (HepG2/C3A cells [1]; after 3 hours of exposure): 34%; decrease in oxidative phosphorylation (HepG2/C3A cells [2]; static culture): 85±5% and 85±8%; glycolytic capacity change (HepG2/C3A cells [2]; static culture): relatively unchanged; decrease in extracellular acidification rate (ECAR) (HepG2/C3A cells [2]; [6]): 21±12%; exposure time after which the metabolic shift from oxidative phosphorylation to glycolysis occurred (HepG2/C3A cells [3]; 50 μM): 3 h; additional drop in glucose uptake (HepG2/C3A cells [3]; [7]): 65%; change in lactate production (HepG2/C3A cells [3]; [7]): no change; lactate over glucose ratio (HepG2/C3A cells [3]; 50 μM, within 3 hours after exposure): 2.6; drop in glucose uptake (HepG2/C3A cells [3]; [8]): 59%; drop in lactate production (HepG2/C3A cells [3]; [8]): 35%; lactate over glucose ratio (HepG2/C3A cells [3]; gradual switch to compensatory mechanisms): above 2; increase in glutaminolysis (HepG2/C3A cells [4]): 4±1 folds; increase in mitochondrial membrane potential (MMP) (HepG2/C3A cells [5]; within 3 hours of exposure): 40±6%; effect on mitochondrial membrane potential (MMP), in words (HepG2/C3A cells [5]; rotenone after 3 hours, troglitazone along 6 hours): significant increase; glutamine uptake (outlet-inlet), in words (HepG2/C3A spheroids): increase in glutamine uptake
